Source: patent publication US5334761A, “Cationic lipids” (Life Technologies, Inc., priority 1992, dated 1994)

Tests used:
some cell lines [1] = details: cited from earlier work; for transfection / delivery of nucleic acids: lipid aggregates or liposomes; for transfection efficiency relative to DOTMA: some cell lines
some cell lines [2] = details: cited from earlier work
[3] = system: normal human keratinocytes; assay: CAT transient transfection; type: cell-based; details: for DNA transfection (in words): keratinocytes; for CAT ACTIVITY: 2 μg pSV2CAT, 6 h, 50 μl of 300 μl assayed
Protocol: (§1) A one-to-one mixture (by weight) of the desired lipid and dioleylphosphatidyl ethanolamine was prepared in CHCl3. The CHCl3 was removed on the rotary evaporator to obtain a thin film of lipid mixture. The mixture was hydrated with enough water to obtain approximately 1.25 mg of lipid per ml of solution. The solution was passed through a microfluidizer twice and diluted to 1 mg/ml. The liposome formulation was then filtered through a 0.2 μ filter. Compound 8 was also formulated without DOPE either by sonication at 1 mg/ml in water or by dissolving a dried lipid film with ethanol and then adding water to give a final concentration of 2.5 mg/ml. Ethanol was 10% of that volume. In some instances, this was further diluted with water to 1 mg/ml, 4% ethanol.
(§2) Baby hamster kidney (BHK-21) , COS-7, HeLa-S3 cells, and normal human fibroblasts isolated from newborn foreskin dermis were grown in Dulbecco's-modified Eagle's medium (DMEM) containing 10% fetal bovine serum (FBS), 2 mM L-glutamine (gln), 0.1 mM MEM nonessential amino acids (NEAA), 100 U/ml penicillin, and 100 μg/ml streptomycin. NIH-3T3 cells were grown in DMEM containing 10% calf serum (CS), 2 mMgln, 0.1 mM NEAA 100 U/ml penicillin, and 100 μg/ml streptomycin. PC12 cells were grown in DMEMcontaining 10% horse serum, 5% FBS, 2 mM gln, 0 1 mMNEAA, 100 U/ml penicillin and 100 μ/ml streptomycin. Jurkat cells (human lymphoid cell line) were grown in RPMI-1640 supplemented with 10% FBS, 2mML-glutamine, 100 U/ml penicillin, and 100 μg/ml streptomycin. Human keratinocytes were isolated from newborn foreskin epidermis and cultured in Keratinocyte Growth Medium (Clonetics, San Diego, Ca.). All cell lines were maintained in a humidified incubator with a 5% CO2 atmosphere at 37° C.
(§3) pSV2CAT (5.0 Kb) was described previously (Gorman, C. M. et al. (1982) Mol. Cell. Biol. 2:1044). pCMVCAT (5.0 Kb) was also described previously (Foecking M. K. and Hofstetter, H. (1986) Gene 45:101). Plasmid DNA was purified by isopycnic centrifugation in CsCl/EtBr gradients after recovery by alkaline lysis (Maniatis, T. et al. (1982) in Molecular Cloning: A Laboratory Manual, Cold Spring Harbor Laboratory, Cold Spring Harbor, N.Y., pp. 90-91).
(§4) For transient transfection of pSV2CAT DNA or pCMVCAT DNA, cells were plated in 6-well tissue culture dishes (35 mm wells) and incubated overnight to approximately 60% confluency. To transfect cells in one well, 1-2 μg of pSV2CAT DNA or pCMVCAT DNA was diluted in 100 μl Opti-MEM I. Cationic lipids were diluted separately in another 100 μl aliquot of Opti-MEM I. The two solutions were then mixed in a polystyrene tube, incubated for 10-15 min at room temperature to allow the formation of a DNA-liposome complex, and diluted to one ml by adding 0.8 ml Opti-MEM I or DMEM containing 5% fetal bovine serum (FBS), 2 mMgln, 0.1 mMNEAA, and lacking antibiotics. The cells were washed once with Opti-MEM I or serum-free DMEM, and the DNA-liposome complex was added directly to the cells. After a six hr incubation at 37° C., the transfection complexes were removed and two ml of DMEM containing 10% FBS, 2 mMgln, 0.2 mMNEAA, 100 U/ml penicillin, and 100 μg/ml streptomycin, was added to each well. Note: human keratinocytes were cultured and transfected in Keratinocyte Growth Medium. Cells were incubated for an additional 48 hrs and lysed in situ by freeze-thawing once or twice in 300 μl 0.1M Tris-HC1, pH 7.8-8.0 containing 0 1% Triton X-100. Cell lysates were assayed for CAT activity.
(§5) Cell lysates were assayed for CAT activity as described by Neumann et al. (1987) BioTechniques 5:444 using [^14 C]-butyryl coenzyme A (New England Nuclear, Boston, Mass.). The enzyme reactions were incubated for 2 hrs at 37° C., overlayed with 3.0 ml Econofluor (New England Nuclear) and then incubated for an additional 2 hrs to allow diffusion of the acetylated chloramphenicol into the scintillation fluid. CAT activity was determined by measuring radioactivity in a liquid scintillation counter. […]

Jurkat cells = assay: CAT transient transfection; type: cell-based, human; details: pSV2CAT, 6 h OPTIMEM
Protocol: as §1, §2, §3
(§6) For transient nuclear expression of pSV2CAT or pCMVCAT in Jurkat cells, cells were washed with Opti-MEM I or serum-free RPMI 1640 containing 2 mM gln and plated in six-well plates at a density of 3×10^6 cells per well in 0.8 ml Opti-MEM I or RPMI 1640. For each transfection, 5 μg pSV2CAT DNA or 2 μg pCMVCAT DNA was diluted in 100 μl Opti-MEM I. Lipids were diluted separately in another 100 μl aliquot of Opti-MEMI. The two solutions were then mixed in a polystyrene tube and incubated for 10-15 min at room temperature. The DNA-liposome complex was added to the cell suspensions and incubated 6 hours at 37° C., after which 4 ml growth medium were added per well (RPMI-1640; 10% FBS). Phorbol myristate acetate (Sigma Chemical Co., St. Louis, Mo.) and phytohemagglutinin (Sigma) were also added to a final concentration of 50 ng/ml and 1 μg/ml, respectively, to activate the cells. Cells were harvested at approximately 48 hours post-transfection by centrifugation. Cell lysates were prepared by resuspending cell pellets at 0° C. in 0.1 M Tris-HC1 pH 8.0 containing 0.1% Triton X-100 and freeze-thawing once. Cell lysates were cleared by centrifugation and assayed for CAT activity.
as §5

[4] = % protein (toxicity estimate, Bradford) after transfection; type: cell-based, human; details: human, jurkat cells, pSV2CAT, 6 h OPTIMEM
Protocol: as §1, §2, §6
The "% protein" column indicates the relative amount of protein in the sample tested for CAT activity and therefore provides a way to estimate toxicity of the compounds being tested. The "CAT Activity" column indicates the relative transfection effectiveness of the lipid formulation in the various cell lines. The control sample was a cell culture grown under similar conditions as those that were transfected, but with no DNA or cationic lipid added. Protein was measured using a commercially available Bradford protein assay (BioRad Laboratories, Richmond, Ca.).
Jurkat cells (3 × 10^6 cells) were transfected in OPTIMEM with
μg of pSV2CAT DNA for 6 hours.
DNA-lipid complexes were made in OPTIMEM. Jurkat cells (3 × 10^
cells) were transfected in RPMI1640 with 2 μg of pCMVCAT DNA for 6

[5] = as above; type: cell-based, human; details: human, keratinocytes, 2 μg pSV2CAT, 6 h
Protocol: as §1
as §2, with “C. […]” for “C.”
(§7) The "% protein" column indicates the relative amount of protein in the sample tested for CAT activity and therefore provides a way to estimate toxicity of the compounds being tested. […] Protein was measured using a commercially available Bradford protein assay (BioRad Laboratories, Richmond, Ca.). […]

HeLa-S3 cells = assay: CAT transient transfection; type: cell-based; details: for CAT ACTIVITY: 2 μg pSV2CAT, 6 h
Protocol: as §1, §2, §3, §4, §5

[6] = % protein (toxicity estimate, Bradford) after transfection; type: cell-based, mouse; details: mouse, nih-3t3 cells; 16 μg lipid; 2 μg pSV2CAT; 6 h OPTI MEM serum-free
Protocol: as §1
(§8) Baby hamster kidney (BHK-21) , COS-7, HeLa-S3 cells, and normal human fibroblasts isolated from newborn foreskin dermis were grown in Dulbecco's-modified Eagle's medium (DMEM) containing 10% fetal bovine serum (FBS), 2 mM L-glutamine (gln), 0.1 mM MEM nonessential amino acids (NEAA), 100 U/ml penicillin, and 100 μg/ml streptomycin. […]
as §7

[7] = as above; type: cell-based; details: human, hela-s3 cells, 2 μg pSV2CAT
Protocol: as §1, §8, §7

NIH-3T3 cells = assay: CAT transient transfection; type: cell-based, mouse; details: for CAT ACTIVITY: 2 μg pSV2CAT, 6 h OPTI MEM serum-free; for DNA transfection (in words): NIH-3T3
Protocol: as §1, §2, §3, §4, §5

## CCCCCCCC/C=C\CCCCCCCCOCC(C[N+](C)(C)C)OCCCCCCCC/C=C\CCCCCCCC (stereo not drawn) [DOTMA]
Some cell lines [1]
  transfection / delivery of nucleic acids: efficient delivery of nucleic acids to some types of cells

## CCCCCCCCCCCCCCCC(=O)OCC(COP(=O)(O)OCCNC(=O)C(CCCNCCCN)NCCCN)OC(=O)CCCCCCCCCCCCCCC (stereo not drawn) [DPPES, dipalmitoylphosphatidylethanolamine 5-carboxyspermylamide]
Some cell lines [1]
  transfection / delivery of nucleic acids: efficient transfection
  transfection efficiency relative to DOTMA: more efficient
Some cell lines [2]
  toxicity relative to DOTMA: less toxic

## CCCCCCCCCCCCCCCCCCN(CCCCCCCCCCCCCCCCCC)C(=O)CNC(=O)C(CCCNCCCN)NCCCN (stereo not drawn) [DOGS, 5-carboxyspermylglycine dioctadecylamide]
Some cell lines [1]
  transfection / delivery of nucleic acids: efficient transfection
  transfection efficiency relative to DOTMA: more efficient
Some cell lines [2]
  toxicity relative to DOTMA: less toxic

## CCCCCCCC/C=C\CCCCCCCCOCC(C[N+](C)(C)CCNCCCNCCCCNCCCN)OCCCCCCCC/C=C\CCCCCCCC (stereo not drawn) [Compound 5, 1-Propanaminium,N-{2-[[3-[[4-[(3-aminopropyl)amino]butyl]-amino]propyl]amino]ethyl}-n,n-dimethyl-2,3-bis-(9-octadecenyloxy)-, bromide]
[3]
  DNA transfection (in words): effective
Jurkat cells; 20 μg lipid
  CAT ACTIVITY: 1170 CPM/150 μl
[4]; 20 μg lipid
  viability at 6 h: 100%

## CCCCCCCC/C=C\CCCCCCCCOCC(C[N+](C)(C)CCBr)OCCCCCCCC/C=C\CCCCCCCC (stereo not drawn) [Compound 3, 1-Propanaminium, N-[2-(2-bromo)ethyl]-N,N-dimethyl-2,3-bis(9-octadecenyloxy)-,bromide]
[5]; 10 μg lipid
  viability at 6 h: 42%
[3]; 10 μg lipid
  CAT ACTIVITY: 10,598 CPM
HeLa-S3 cells; 6 μg lipid, DMEM, 5% FBS
  CAT ACTIVITY: 78,798 CPM
HeLa-S3 cells; 12 μg lipid, OPTIMEM I, 0% FBS
  CAT ACTIVITY: 29,400 CPM
HeLa-S3 cells; HeLa-S3, presence or absence of serum
  DNA transfection (in words): good activity
[6]
  viability at 6 h: 35%
[7]; 6 μg lipid, DMEM, 5% FBS
  viability at 6 h: 54%
[7]; 12 μg lipid, OPTIMEM I, 0% FBS
  viability at 6 h: 43%
Jurkat cells; 30 μg lipid
  CAT ACTIVITY: 3008 CPM/150 μl
NIH-3T3 cells; 16 μg lipid
  CAT ACTIVITY: 6,074 CPM
NIH-3T3 cells
  DNA transfection (in words): good activity
[4]; 30 μg lipid
  viability at 6 h: 97%

## CCCCCCCC/C=C\CCCCCCCCOCC(C[N+](C)(C)CCN)OCCCCCCCC/C=C\CCCCCCCC (stereo not drawn) [Compound 2, 1-Propanaminium, N-(2-amino)ethyl-N,N-dimethyl-2,3-bis(9-octadecenyloxy)-bromide]
NIH-3T3 cells
  DNA transfection (in words): good activity

## CCCCCCCC/C=C\CCCCCCCCOCC(C[N+](C)(C)CCNCCCN)OCCCCCCCC/C=C\CCCCCCCC (stereo not drawn) [Compound 4, 1-Propanaminium, N-[2-[(3-aminopropyl)amino]ethyl]-N,N-dimethyl-2,3-bis(9-octadecenyloxy)-, bromide]
[5]; 40 μg lipid
  viability at 6 h: 41%
[3]; 40 μg lipid
  CAT ACTIVITY: 20,038 CPM
[3]
  DNA transfection (in words): effective
Jurkat cells; 20 μg lipid
  CAT ACTIVITY: 2252 CPM/150 μl
Jurkat cells; 30 μg lipid
  CAT ACTIVITY: 820 CPM/150 μl
NIH-3T3 cells; 24 μg lipid
  CAT ACTIVITY: 3,114 CPM
[4]; 20 μg lipid
  viability at 6 h: 93%
[4]; 30 μg lipid
  viability at 6 h: 100%

## CC(C)CCC[C@@H](C)[C@H]1CC[C@H]2[C@@H]3CC=C4C[C@@H](OC(=O)NCCN(C)C)CC[C@]4(C)[C@H]3CC[C@]12C [DC-Chol]
Some cell lines [1]
  transfection efficiency relative to DOTMA: more efficient transfection
Some cell lines [2]
  toxicity relative to DOTMA: lower toxicity
